Measurements taken from ChEMBL document CHEMBL1157422, “Phloroglucinols with antioxidant activity and xanthonolignoids from the heartwood of Hypericum geminiflorum” (J Nat Prod, 2008).
Active and inactive are the calls of the source. The rule behind the calls is not given here.

How the values were obtained:
[1] = test system: Radical scavenging activity; assay: Antioxidant activity assessed as DPPH free radical scavenging; format: functional
[2] = biological target: Xanthine dehydrogenase/oxidase (Homo sapiens, UniProt P47989); assay: Inhibition of xanthine oxidase
Xanthine dehydrogenase/oxidase, sequence (P47989 whole entry): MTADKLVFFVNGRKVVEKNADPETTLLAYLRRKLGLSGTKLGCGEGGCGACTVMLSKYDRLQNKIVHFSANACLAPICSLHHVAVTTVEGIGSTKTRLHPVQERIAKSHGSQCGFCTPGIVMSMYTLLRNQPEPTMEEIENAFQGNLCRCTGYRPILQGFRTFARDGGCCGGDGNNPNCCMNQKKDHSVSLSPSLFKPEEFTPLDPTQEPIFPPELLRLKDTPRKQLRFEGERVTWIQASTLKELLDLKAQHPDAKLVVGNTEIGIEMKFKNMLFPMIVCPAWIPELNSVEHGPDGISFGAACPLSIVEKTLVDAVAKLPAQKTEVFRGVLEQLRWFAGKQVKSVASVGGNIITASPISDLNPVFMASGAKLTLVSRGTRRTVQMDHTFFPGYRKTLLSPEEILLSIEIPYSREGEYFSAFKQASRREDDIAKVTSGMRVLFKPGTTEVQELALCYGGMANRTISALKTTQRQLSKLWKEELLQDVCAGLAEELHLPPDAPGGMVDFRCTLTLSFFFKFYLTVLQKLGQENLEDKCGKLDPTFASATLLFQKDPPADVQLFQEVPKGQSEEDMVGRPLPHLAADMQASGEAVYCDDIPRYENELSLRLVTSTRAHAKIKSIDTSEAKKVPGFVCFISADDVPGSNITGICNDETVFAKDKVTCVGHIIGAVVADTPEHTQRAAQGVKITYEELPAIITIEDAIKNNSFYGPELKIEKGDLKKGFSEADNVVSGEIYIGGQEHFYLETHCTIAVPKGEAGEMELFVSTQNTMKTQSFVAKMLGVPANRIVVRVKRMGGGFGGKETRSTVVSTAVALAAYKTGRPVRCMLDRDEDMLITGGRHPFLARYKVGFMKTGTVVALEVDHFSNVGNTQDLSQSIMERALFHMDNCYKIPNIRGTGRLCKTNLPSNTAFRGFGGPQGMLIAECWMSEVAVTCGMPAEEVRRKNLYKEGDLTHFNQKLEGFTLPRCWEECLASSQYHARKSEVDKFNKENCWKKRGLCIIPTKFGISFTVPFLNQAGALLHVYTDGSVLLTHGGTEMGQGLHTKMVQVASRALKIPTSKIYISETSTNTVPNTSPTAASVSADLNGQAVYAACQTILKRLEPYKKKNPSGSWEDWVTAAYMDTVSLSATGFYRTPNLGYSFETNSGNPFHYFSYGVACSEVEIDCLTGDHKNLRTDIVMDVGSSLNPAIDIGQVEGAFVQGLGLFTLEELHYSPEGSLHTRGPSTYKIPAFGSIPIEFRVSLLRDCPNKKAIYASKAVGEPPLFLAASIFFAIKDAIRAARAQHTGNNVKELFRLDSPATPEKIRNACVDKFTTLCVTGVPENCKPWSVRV

[3] = test system: Radical scavenging activity; assay: Antioxidant activity assessed as DPPH free radical scavenging at 300 uM; format: functional
[4] = test system: Escherichia coli; assay: Inhibition of oxygen free radical-induced DNA damage of Escherichia coli plasmid DNA pBR322 by agarose gel electrophoresis

IC50 [1] [µM]	IC50 [2] [µM]	Structure (SMILES)	inhibition [3] [%]	Activity [4]
18.1	–	Cc1c(C)c2c(c(C)c1O)CC[C@@](C)(CCCC(C)CCCC(C)CCCC(C)C)O2 (single isomer, unassigned) [ALPHA-TOCOPHEROL]	–	–
–	42.1	CCC(C)C(=O)C1=C(O)[C@@](C)(CC=C(C)C)C(=O)[C@@]2(C[C@H]3[C@H](CC[C@@]3(C)O)[C@](C)(O)C2)C1=O (some centres not stated) [HYPERIELLIPTONE HB]	4.5	Active
–	42.1	CCC(C)C(=O)C1=C(O)[C@]2(C[C@H]3[C@H](CC[C@@]3(C)O)[C@](C)(O)C2)C(=O)[C@](C)(CC=C(C)C)C1=O (some centres not stated) [HYPERIELLIPTONE HB]	4.5	Active
